Test system: headache during an acute migraine attack
Assay: Intensity of the headache (visual analogue scale 0 to 10) during acute migraine attacks in one migraine patient after intake of the substance(s)
Format: in vivo, human
Description: During the course of the trial, the patient had 17 recorded acute migraine attacks which were treated by either one of the following nine treatment regimes: • 1. 13 g flavoured mix of β-hydroxbutyrate (βHB) mineral salts termed “MigraKet” (a ketone body) • 2. 500 mg acetylsalicylic acid (a simple analgesic) • 3. 400 mg ibuprofen (a simple analgesic) • 4. 13 g MigraKet+500 mg acetylsalicylic acid (combination of a ketone body and a simple analgesic) • 5. 13 g MigraKet+400 mg ibuprofen (combination of a ketone body and a simple analgesic) • 6. 2.5 mg frovatriptan (a triptan) • 7. 13 g MigraKet+2.5 mg frovatriptan (combination of a ketone body and a triptan) • 8. 9 mg melatonin • 9. 13 g MigraKet+9 mg melatonin (combination of a ketone body and an antioxidant such as melatonin) The “MigraKet” consisted of:
10g of a sodium, potassium, magnesium and calcium D-βHB mineral mix in a 1:1:2:2 ratio, and 3g of flavour (malic acid and natural lemon and lime flavour sweetend by stevia), dissolved in 0.51 of still water.
The intensity of the headache (pain) was recorded at the time of intake of the substance(s) (0h), and at five subsequent time-points during the course of one day (2h, 4 h, 8h, 12 h, 24h after substance intake). The intensity of the headache (pain) was categorized on a visual analogue scale from 0 (“no pain”) to 10 (“worst pain imaginable”). […]

Structure (SMILES) | time for which the headache was eliminated (after intake, melatonin with βHB: in 1 out of 2 instances, b14: taken when intensity about 0 to about 4) | effect on the headache in words (over the course of 24 hours)
CN[C@@H]1CCc2[nH]c3ccc(C(N)=O)cc3c2C1 [Frovatriptan, frovatriptan] | less than 12 h | –
COc1ccc2[nH]cc(CCNC(C)=O)c2c1 [Melatonin, N-[2-(5-Methoxyindol-3-yl)ethyl]acetamid] | – | did not ameliorate the headache

— US20250275986A1, “COMBINATION OF A KETONE BODY OR KETOGENIC COMPOUND WITH AN ANALGESIC OR ANTIOXIDANT” (KETOSWISS AG, priority 2021, published 2025)
